The target in the test is T1, wild type HIV-1 protease (Q7K) (Human immunodeficiency virus type 1 group M subtype B, UniProt P04585, Q495K).
T1 construct: Wide type HIV-1 protease (Q7K)
Put plainly: FRET HIV-1 protease inhibition assay, wild type. To be noted: for inhibitory activity against wild type HIV-1 protease (in words): qualitative statement. The test is classed as biochemical. As to the method: Biological Evaluation of Selected Compounds of the Invention. HIV protease inhibitor activities were determined by fluorescence resonance energy transfer (FRET) method. […] Inhibitor binding dissociation constant (Ki value) was obtained by nonlinear regression fitting to the plot of initial velocity as a function of inhibitor concentration based on Morrison equation.
The energy transfer donor (EDANS) and acceptor (DABCYL) were labeled at its two ends respectively to perform FRET. Fluorescence measurements were carried out on PTI fluorescence spectrophotometer (Photon Technology International) at 30° C. Excitation and emission wavelengths were set at 340 nm and 490 nm, respectively. Each reaction was recorded for about 10 min. Wide type HIV-1 protease (Q7K) and its MDR mutants M1 (L10I, G48V, I54V, L63P, V82A), M2 (D30N, L63P, N88D), and M3 (L10I, L63P, A71V, G73S, I84V, L90M) were desalted through PD-10 columns (Amersham Biosciences). Sodium Acetate (20 mM, pH 5) was used as elution buffer. Apparent protease concentrations were around 50 nM estimated by UV spectrophotometer (Shimadzu) at 280 nm. All inhibitors were dissolved in DMSO and diluted to appropriate concentrations. Protease (2 μL) and inhibitor (2 μL) or DMSO were mixed and incubated for 20-30 min at room temperature before initialing substrate cleavage reaction. Throughout this work, 150 μL of 1 μM substrate was used. Substrate buffer is composite of 0.1 M sodium acetate, 1 M sodium chloride, 1 mM ethylenediaminetetraacetic acid (EDTA), 1 mM dithiothreitol (DTT), 2% dimethylsulfoxide (DMSO) and 1 mg/mL bovine serum albumin (BSA) with an adjusted pH 4.7. Inhibitor binding dissociation constant (Ki) was obtained by nonlinear regression fitting (GraFit 5, Erithacus software) to the plot of initial velocity as a function of inhibitor concentrations based on Morrison equation.

[1] abbreviates: wild type HIV-1 protease (Q7K), FRET, in triplicate, read-out: Ki.

Like-named read-outs stand apart in the source and are kept apart here.

What is called Ki is a dissociation constant, usually derived from enzyme kinetics or from competition with a known ligand. Turning to `COc1ccc(S(=O)(=O)N(CC(C)C)C[C@@H](O)[C@H](Cc2ccccc2)NC(=O)[C@H]2CN(c3ccccc3)C(=O)O2)cc1` [20a, (5R)—N-[(1S,2R)-1-Benzyl-2-hydroxy-3-[isobutyl[(4-methoxyphenyl)sulfonyl]amino]-propyl]-2-oxo-3-phenyloxazolidine-S-carboxamide], the affinity, expressed as Ki, was 10.7 nM. `COc1ccc(S(=O)(=O)N(CC(C)C)C[C@@H](O)[C@H](Cc2ccccc2)NC(=O)[C@@H]2CN(c3ccccc3)C(=O)O2)cc1` [21a, (5S)—N-[(1S,2R)-1-Benzyl-2-hydroxy-3-[isobutyl[(4-methoxyphenyl)sulfonyl]amino]propyl]-2-oxo-3-phenyloxazolidine-S-carboxamide]: the Ki under setting [1] was 0.1 nM.

In the case of `COc1ccc(S(=O)(=O)N(CC(C)C)C[C@@H](O)[C@H](Cc2ccccc2)NC(=O)[C@@H]2CN(c3cccc(F)c3)C(=O)O2)cc1` [21b, (5S)—N-[(1S,2R)-1-Benzyl-2-hydroxy-3-[isobutyl[(4-methoxyphenyl)sulfonyl]amino]-propyl]-3-(3-fluorophenyl)-2-oxo-oxazolidine-S-carboxamide], the inhibitory constant (Ki) amounted to 0.08 nM.

Consider `COc1ccc(S(=O)(=O)N(CC(C)C)C[C@@H](O)[C@H](Cc2ccccc2)NC(=O)[C@@H]2CN(c3ccc(F)c(F)c3)C(=O)O2)cc1` [21c, (5S)—N-[(1S,2R)-1-Benzyl-2-hydroxy-3-[isobutyl[(4-methoxyphenyl)sulfonyl]amino]-propyl]-3-(3,4-difluorophenyl)-2-oxo-oxazolidinone-S-carboxamide], for which, under setting [1], the Ki was 0.066 nM.

In turn, `COc1ccc(S(=O)(=O)N(CC(C)C)C[C@@H](O)[C@H](Cc2ccccc2)NC(=O)[C@@H]2CN(c3cccc(C(F)(F)F)c3)C(=O)O2)cc1` [21d, (5S)—N-[(1S,2R)-1-Benzyl-2-hydroxy-3-[isobutyl[(4-methoxyphenyl)sulfonyl]amino]-propyl]-2-oxo-3-[(3-trifluoromethyl)phenyl]oxazolidine-S-carboxamide] returned a Ki of 0.006 nM. On the same count and under the same terms, to `COc1ccc(S(=O)(=O)N(CC(C)C)C[C@@H](O)[C@H](Cc2ccccc2)NC(=O)[C@@H]2CN(c3cccc(OC)c3)C(=O)O2)cc1` [21g, (5S)—N-[(1S,2R)-1-Benzyl-2-hydroxy-3-[isobutyl[(4-methoxyphenyl)sulfonyl]-amino]propyl]-3-(3-methoxyphenyl)-2-oxo-oxazolidine-S-carboxamide] belongs 0.045 nM. Same read-out and setting: next, `CC(C)CN(C[C@@H](O)[C@H](Cc1ccccc1)NC(=O)[C@H]1CN(c2ccccc2)C(=O)O1)S(=O)(=O)c1ccc(N)cc1` [24a, (5R)—N-[(1S,2R)-3-[[(4-Aminophenyl)sulfonyl](isobutyl)amino]-1-benzyl-2-hydroxypropyl]-2-oxo-3-phenyloxazolidine-S-carboxamide]: 37.4 nM. Turning to `CC(C)CN(C[C@@H](O)[C@H](Cc1ccccc1)NC(=O)[C@@H]1CN(c2ccccc2)C(=O)O1)S(=O)(=O)c1ccc(N)cc1` [25a, (5S)—N-[(1S,2R)-3-[[(4-Aminophenyl)sulfonyl](isobutyl)amino]-1-benzyl-2-hydroxypropyl]-2-oxo-3-phenyloxazolidine-S-carboxamide], under setting [1], the Ki turned out to be 0.53 nM. Regarding `CC(C)CN(C[C@@H](O)[C@H](Cc1ccccc1)NC(=O)[C@@H]1CN(c2cccc(F)c2)C(=O)O1)S(=O)(=O)c1ccc(N)cc1` [25b, (5S)—N-[(1S,2R)-3-[[(4-Aminophenyl)sulfonyl](isobutyl)amino]-1-benzyl-2-hydroxypropyl]-3-(3-fluorophenyl)-2-oxo-oxazolidine-S-carboxamide], the “inhibitory activity against wild type HIV-1 protease (in words)” value (“inhibitory activity” below) is listed as “relatively small improvement in activities compared to 25a”.

Regarding `CC(C)CN(C[C@@H](O)[C@H](Cc1ccccc1)NC(=O)[C@@H]1CN(c2ccc(F)c(F)c2)C(=O)O1)S(=O)(=O)c1ccc(N)cc1` [25c, (5S)—N-[(1S,2R)-3-[[(4-Aminophenyl)sulfonyl](isobutyl)amino]-1-benzyl-2-hydroxypropyl]-3-(3,4-difluorophenyl)-2-oxo-oxazolidine-S-carboxamide], the “inhibitory activity” value is listed as “relatively small improvement in activities compared to 25a”. As to `CC(C)CN(C[C@@H](O)[C@H](Cc1ccccc1)NC(=O)[C@@H]1CN(c2cccc(C(F)(F)F)c2)C(=O)O1)S(=O)(=O)c1ccc(N)cc1` [25d, (5S)—N-[(1S,2R)-3-[[(4-Aminophenyl)sulfonyl](isobutyl)amino]-1-benzyl-2-hydroxypropyl]-2-oxo-3-[(3-trifluoromethyl)phenyl]oxazolidine-S-carboxamide], the Ki under setting [1] worked out at 0.042 nM. In turn, `CC(=O)c1cccc(N2C[C@@H](C(=O)N[C@@H](Cc3ccccc3)[C@H](O)CN(CC(C)C)S(=O)(=O)c3ccc(N)cc3)OC2=O)c1` [25e, (5S)-3-(3-Acetylphenyl)-N-[(1S,2R)-3-[[(4-aminophenyl)sulfonyl](isobutyl)amino]-1-benzyl-2-hydroxypropyl]-2-oxo-oxazolidine-S-carboxamide] registered a Ki of 0.032 nM.

Turning to `CC(=O)c1ccc(N2C[C@@H](C(=O)N[C@@H](Cc3ccccc3)[C@H](O)CN(CC(C)C)S(=O)(=O)c3ccc(N)cc3)OC2=O)cc1` [25f, (5S)-3-(4-Acetylphenyl)-N-[(1S,2R)-3-[[(4-aminophenyl)sulfonyl](isobutyl)amino]-1-benzyl-2-hydroxypropyl]-2-oxo-oxazolidine-S-carboxamide], the “inhibitory activity” value is on record as “relatively small improvement in activities compared to 25a”. As to `CC(C)CN(C[C@@H](O)[C@H](Cc1ccccc1)NC(=O)[C@@H]1CN(c2cccc(C(F)(F)F)c2)C(=O)O1)S(=O)(=O)c1ccc2c(c1)OCO2` [26d, (5S)—N-[(1S,2R)-3-[[(Benzo-[1,3]-dioxole-S-sulfonyl)](isobutyl)amino]-1-benzyl-2-hydroxypropyl]-2-oxo-3-[(3-trifluoromethyl)phenyl]oxazolidine-S-carboxamide], the Ki under setting [1] was 0.016 nM. As to `CC(=O)c1cccc(N2C[C@@H](C(=O)N[C@@H](Cc3ccccc3)[C@H](O)CN(CC(C)C)S(=O)(=O)c3ccc4c(c3)OCO4)OC2=O)c1` [26e, (5S)-3-(3-Acetylphenyl)-N-[(1S,2R)-3-[[(benzo-[1,3]-dioxole-5-sulfonyl)](isobutyl)amino]-1-benzyl-2-hydroxypropyl]-2-oxo-oxazolidine-S-carboxamide], affinity was put at a Ki of 0.006 nM.

As to `CC(=O)c1ccc(N2C[C@@H](C(=O)N[C@@H](Cc3ccccc3)[C@H](O)CN(CC(C)C)S(=O)(=O)c3ccc4c(c3)OCO4)OC2=O)cc1` [26f, (5S)-3-(4-Acetylphenyl)-N-[(1S,2R)-3-[[(benzo-[1,3]-dioxole-S-sulfonyl)](isobutyl)-amino]-1-benzyl-2-hydroxypropyl]-2-oxo-oxazolidine-S-carboxamide], under setting [1], the Ki was found to be 0.016 nM.

Regarding `COc1ccc(S(=O)(=O)N(CC(C)C)C[C@@H](O)[C@H](Cc2ccccc2)NC(=O)[C@@H]2CN(c3cccc(F)c3)C(=O)O2)cc1F` [27b, (5S)—N-[(1S,2R)-1-Benzyl-3-[[(3-fluoro-4-methoxyphenyl)sulfonyl](isobutyl)amino]-2-hydroxypropyl]-3-(3-fluorophenyl)-2-oxo-oxazolidine-S-carboxamide], under setting [1], the Ki turned out to be 0.07 nM. Still for that read-out and setting: to `COc1ccc(S(=O)(=O)N(CC(C)C)C[C@@H](O)[C@H](Cc2ccccc2)NC(=O)[C@@H]2CN(c3ccc(F)c(F)c3)C(=O)O2)cc1F` [27c, (5S)—N-[(1S,2R)-1-Benzyl-3-[[(3-fluoro-4-methoxyphenyl)sulfonyl](isobutyl)amino]-2-hydroxypropyl]-3-(3,4-difluorophenyl)-2-oxo-oxazolidine-S-carboxamide] belongs 0.343 nM; to `COc1ccc(S(=O)(=O)N(CC(C)C)C[C@@H](O)[C@H](Cc2ccccc2)NC(=O)[C@@H]2CN(c3cccc(C(F)(F)F)c3)C(=O)O2)cc1F` [27d, (5S)—N-[(1S,2R)-1-Benzyl-3-[[(3-fluoro-4-methoxyphenyl)sulfonyl](isobutyl)amino]-2-hydroxypropyl]-2-oxo-3-[(3-trifluoromethyl)phenyl)oxazolidine-S-carboxamide], 0.072 nM.

As for `COc1ccc(S(=O)(=O)N(CC(C)C)C[C@@H](O)[C@H](Cc2ccccc2)NC(=O)[C@@H]2CN(c3ccc(C(C)=O)cc3)C(=O)O2)cc1F` [27f, (S)-3-(4-Acetylphenyl)-N-[(1S,2R)-1-Benzyl-3-[[(3-fluoro-4-methoxyphenyl)-sulfonyl](isobutyl)amino]-2-hydroxypropyl]-2-oxo-oxazolidine-S-carboxamide], the Ki under setting [1] was determined as 0.08 nM. `COc1cccc(S(=O)(=O)N(CC(C)C)C[C@@H](O)[C@H](Cc2ccccc2)NC(=O)[C@@H]2CN(c3ccccc3)C(=O)O2)c1` [29a, (5S)—N-[(1S,2R)-1-Benzyl-2-hydroxy-3-[isobutyl[(3-methoxyphenyl)sulfonyl]amino]-propyl]-2-oxo-3-phenyloxazolidine-S-carboxamide]: the “inhibitory activity” value is “significant loss of protease inhibitory activity”.
